# Measured values published in patent US20220128557A1, “[…] METHODS FOR REAL-TIME CELL MONITORING” (PHENOFAST LTD., priority 2019, published 2022).
# System: E. coli
# Test: Classical method of serial antibiotic dilution for MIC
# Type: cell-based
# Conditions: FIG. 7E
# Protocol: FIGS. 7A-7E: (7A-7D) Scatter plots, with best fit lines of optical output measured by intensity shift as a function of time, performed on a series of 6 semi-stable sucrose coated grating units in parallel inoculated with E. coli cells and treated an hour later with (7A) 0 μg, (7B) 2.5 μg, (7C) 5.0 μg, and (7D) 7.5 μg of G418. (7E) A photograph of the classical serial dilution method for determining the MIC of G418 for treating E. coli.
# By monitoring the diffraction over time, a range for minimum inhibitory concentration (MIC) was established (FIG. 7A-D). A control well received no antibiotic and normal logarithmic growth was observed (FIG. 7A). […] This would place the MIC at between 2.5 and 5.0 which was the same as the range (2.3-4.7 μg) found by the classical method of serial antibiotic dilution (FIG. 7E).
compound,measurement,value
CN[C@@H]1[C@@H](O)[C@@H](O[C@@H]2[C@@H](O)[C@H](O[C@H]3O[C@H]([C@@H](C)O)[C@@H](O)[C@H](O)[C@H]3N)[C@@H](N)C[C@H]2N)OC[C@]1(C)O [G418],MIC range found by classical serial antibiotic dilution,2.3 to 4.7 µg
